Experimental data: ChEMBL document CHEMBL6134884, “Identification of JNJ-61803534, a RORγt Inverse Agonist for the Treatment of Psoriasis” (J Med Chem, 2025); call rule not given here
Converted amounts (≈) assume the structure as drawn.

Experiments:
[1] = target: T1, Nuclear receptor ROR-gamma (Homo sapiens, UniProt P51449); assay: Inverse agonist activity at N-terminal his-tagged wild type human RORgammat LBD domain expressed in Escherichia coli assessed as dissociation constant by thermofluor assay
T1 sequence (P51449 whole entry): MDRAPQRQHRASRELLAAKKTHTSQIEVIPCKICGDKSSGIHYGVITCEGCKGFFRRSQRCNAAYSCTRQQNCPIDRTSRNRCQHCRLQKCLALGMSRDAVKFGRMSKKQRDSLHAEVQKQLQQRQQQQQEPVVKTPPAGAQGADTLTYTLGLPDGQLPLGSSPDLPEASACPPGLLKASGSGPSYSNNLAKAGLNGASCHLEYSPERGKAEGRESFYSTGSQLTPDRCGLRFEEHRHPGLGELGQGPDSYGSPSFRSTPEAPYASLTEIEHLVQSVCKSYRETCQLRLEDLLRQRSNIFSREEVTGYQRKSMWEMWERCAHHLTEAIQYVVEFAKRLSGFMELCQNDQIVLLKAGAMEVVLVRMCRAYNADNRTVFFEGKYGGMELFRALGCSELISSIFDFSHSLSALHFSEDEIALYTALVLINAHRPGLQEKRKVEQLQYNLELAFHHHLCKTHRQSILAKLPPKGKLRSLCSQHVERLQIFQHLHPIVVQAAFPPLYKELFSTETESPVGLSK

[2] = target: T2, Nuclear receptor ROR-beta (Homo sapiens, UniProt Q92753); assay: Inverse agonist activity at human RORbeta assessed as dissociation constant by thermofluor assay
T2 sequence (Q92753 whole entry): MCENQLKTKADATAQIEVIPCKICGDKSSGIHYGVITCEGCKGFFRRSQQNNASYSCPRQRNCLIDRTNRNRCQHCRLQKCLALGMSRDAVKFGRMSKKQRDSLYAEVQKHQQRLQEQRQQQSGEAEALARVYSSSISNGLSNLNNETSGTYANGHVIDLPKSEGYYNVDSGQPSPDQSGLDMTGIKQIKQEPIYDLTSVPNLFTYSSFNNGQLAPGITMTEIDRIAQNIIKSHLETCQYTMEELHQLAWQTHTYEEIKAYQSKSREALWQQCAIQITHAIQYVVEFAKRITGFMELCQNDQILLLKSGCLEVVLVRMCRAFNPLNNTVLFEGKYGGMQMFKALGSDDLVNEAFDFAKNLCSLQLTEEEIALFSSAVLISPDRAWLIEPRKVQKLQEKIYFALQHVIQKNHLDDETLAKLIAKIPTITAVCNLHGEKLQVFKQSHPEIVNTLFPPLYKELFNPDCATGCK

[3] = target: T3, Nuclear receptor subfamily 1 group I member 2 (Homo sapiens, UniProt O75469); assay: Activation of human PXR at 1 uM relative to control; type: toxicity
T3 sequence (O75469 whole entry): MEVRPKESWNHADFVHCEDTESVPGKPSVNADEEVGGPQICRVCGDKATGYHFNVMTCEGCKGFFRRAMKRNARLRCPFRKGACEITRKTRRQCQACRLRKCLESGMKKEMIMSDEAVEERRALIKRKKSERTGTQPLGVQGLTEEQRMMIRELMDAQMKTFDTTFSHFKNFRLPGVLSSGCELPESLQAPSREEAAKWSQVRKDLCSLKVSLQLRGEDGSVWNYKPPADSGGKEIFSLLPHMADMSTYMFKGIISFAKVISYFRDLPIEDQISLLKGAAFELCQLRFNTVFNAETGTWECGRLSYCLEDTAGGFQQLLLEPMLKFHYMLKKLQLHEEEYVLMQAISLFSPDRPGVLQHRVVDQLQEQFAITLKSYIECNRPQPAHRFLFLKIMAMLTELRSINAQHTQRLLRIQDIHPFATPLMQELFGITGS

PXR [4] = target: T4, PXR (Homo sapiens, UniProt O75469); assay: Activation of human PXR at 5 uM relative to control; type: toxicity; details: read-out: Activity
T4 sequence (O75469 whole entry): T3 sequence (O75469 whole entry)

[5] = target: T1, Nuclear receptor ROR-gamma; assay: Inverse agonist activity at RORgammat in human whole blood assessed as IL-17A production incubated for 1 hrs by ELISA analysis; type: tissue-based
[6] = Aqueous solubility of the compound at pH 7; type: physicochemical; details: aqueous solution
[7] = Aqueous solubility of the compound at pH 2; type: physicochemical; details: aqueous solution
Cytochrome P450 3A4 = Cytochrome P450 3A4 (Homo sapiens, UniProt P08684); assay: Induction of CYP3A4 in human hepatocytes at 10 uM relative to control; type: ADME, cell-based, Hepatocyte
[8] = Solubility of compound in FaSSIF; type: physicochemical
[9] = Solubility of compound in SGF; type: physicochemical
PXR [10] = target: T4, PXR; assay: Activation of human PXR at 10 uM relative to control; type: toxicity; details: read-out: Activity
[11] = Drug uptake in male rat plasma at 50 mg/kg, po after 5 days; type: ADME, organism-based; details: in vivo, 120 h, time 5 day
[12] = target: T1, Nuclear receptor ROR-gamma; assay: Inverse agonist activity at human RORgammat by mammalian 1-hybrid assay
[13] = Cmax in male Sprague-Dawley rat at 1 mg/kg, iv or 5 mg/kg, po measured 24 hrs post dose by LC-MS/MS analysis; type: ADME, organism-based; details: in vivo

Sequence of Cytochrome P450 3A4 (P08684 whole entry): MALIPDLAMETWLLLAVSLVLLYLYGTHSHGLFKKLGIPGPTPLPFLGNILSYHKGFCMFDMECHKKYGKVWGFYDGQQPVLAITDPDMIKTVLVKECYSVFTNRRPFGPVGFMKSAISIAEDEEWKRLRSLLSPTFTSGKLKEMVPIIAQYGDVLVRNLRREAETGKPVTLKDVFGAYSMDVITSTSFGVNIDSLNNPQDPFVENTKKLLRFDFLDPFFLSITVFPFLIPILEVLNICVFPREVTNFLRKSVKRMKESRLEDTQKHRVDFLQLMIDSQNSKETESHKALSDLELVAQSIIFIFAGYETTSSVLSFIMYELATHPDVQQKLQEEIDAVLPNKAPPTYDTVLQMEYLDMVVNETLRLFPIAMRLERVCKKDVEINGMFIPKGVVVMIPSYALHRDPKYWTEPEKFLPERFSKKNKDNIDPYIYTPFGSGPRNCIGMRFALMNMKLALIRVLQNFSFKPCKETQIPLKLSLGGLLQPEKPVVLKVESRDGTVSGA

SMILES	Kd [1] [nM]	Kd [2] [nM]	Activity [3] [%]	activity at 5 µM (PXR [4]) [%]	IC50 [5] [nM]	solubility [6] [µM]	solubility [7] [µM]	Activity (Cytochrome P450 3A4) [%]	solubility [8] [µM]	solubility [9] [µM]	activity at 10 µM (PXR [10]) [%]	Drug uptake [11]	IC50 [12] [nM]	Cmax [13] [nM]
CCN(C(=O)c1nc(C(=O)NCC(C)(C)O)sc1-c1ccc(C(O)(C(F)(F)F)C(F)(F)F)c(Cl)c1Cl)C1CCC1	0.2	1100	10	21										
C[C@H]1C[C@@H](F)CCN1C(=O)c1nc(C(=O)NCC(C)(C)O)sc1-c1ccc(C(O)(C(F)(F)F)C(F)(F)F)c(Cl)c1Cl		1000	14	40	210	< 4	< 4							
CC(C)(O)CNC(=O)c1nc(C(=O)N2CCC(F)CC2)c(-c2ccc(C(O)(C(F)(F)F)C(F)(F)F)c(Cl)c2Cl)s1		1900	1.5	14	890	< 4	< 4							
C[C@H]1CCCN1C(=O)c1nc(C(=O)NCC(C)(C)O)sc1-c1ccc(C(O)(C(F)(F)F)C(F)(F)F)cc1Cl	0.63	4900	3.6		240	< 4	6.3 (≈ 3.7 µg/mL)	11	130 (≈ 76.4 µg/mL)	6.3 (≈ 3.7 µg/mL)	27			
C[C@H]1CCCCN1C(=O)c1nc(C(=O)NCC(C)(C)O)sc1-c1ccc(C(O)(C(F)(F)F)C(F)(F)F)cc1C(F)F		850	28			< 4	< 4		14 (≈ 8.65 µg/mL)	< 4	84			
CCN(CC)C(=O)c1nc(C(=O)NCC(C)(C)O)sc1-c1ccc(C(O)(C(F)(F)F)C(F)(F)F)c(Cl)c1Cl		3500	32	76		< 4	< 4	16				Active		
Cc1cc(C(O)(C(F)(F)F)C(F)(F)F)ccc1-c1sc(C(=O)NCC(C)(C)O)nc1C(=O)N1CCCC[C@@H]1C	0.25	1400	8		160	< 4	< 4	10	4.6 (≈ 2.68 µg/mL)	< 4	24			
Cc1cc(C(O)(C(F)(F)F)C(F)(F)F)ccc1-c1sc(C(=O)NCC(C)(C)O)nc1C(=O)N1CCC[C@@H]1C		15000	12		530	86 (≈ 48.8 µg/mL)	35 (≈ 19.9 µg/mL)	16	250 (≈ 142 µg/mL)	63 (≈ 35.8 µg/mL)	31			
CN(C(=O)c1nc(C(=O)NCC(C)(C)O)sc1-c1ccc(C(O)(C(F)(F)F)C(F)(F)F)c(Cl)c1Cl)C1CCC1	0.4	2300	1.9	9.1									9.4	
Cc1c(C(N)=O)cc(-c2ccc(C(O)(C(F)(F)F)C(F)(F)F)cc2)n1CC1CCCCC1													1700	
C[C@H]1CCCCN1C(=O)c1nc(C(=O)NCC(C)(C)O)sc1-c1ccc(C(O)(C(F)(F)F)C(F)(F)F)cc1Cl	0.058	430	13		81	< 4	< 4		77 (≈ 46.4 µg/mL)	< 4	25			
Cc1c(S(N)(=O)=O)cc(-c2ccc(S(=O)(=O)NC(C)(C)C)cc2)n1CC1CCCCC1													1780	
C[C@H]1CCCN1C(=O)c1nc(C(=O)NCC(C)(C)O)sc1-c1ccc(C(O)(C(F)(F)F)C(F)(F)F)cc1C(F)F		13000	27			13 (≈ 7.85 µg/mL)	12 (≈ 7.24 µg/mL)	33	99 (≈ 59.7 µg/mL)	22 (≈ 13.3 µg/mL)	74			
CCN(CC)C(=O)c1nc(C(=O)N2C[C@H](O)C[C@H](O)C2)sc1-c1ccc(C(O)(C(F)(F)F)C(F)(F)F)c(Cl)c1Cl		13000	2.7	4.7	190	41 (≈ 26.2 µg/mL)	52 (≈ 33.2 µg/mL)							100
C[C@H](NS(=O)(=O)c1ccc(-c2sc(C(=O)NCC(C)(C)O)nc2C(=O)N2CCC(F)CC2)c(Cl)c1Cl)C(F)(F)F			13											
C[C@H]1CC(F)(F)CN1C(=O)c1nc(C(=O)NCC(C)(C)O)sc1-c1ccc(C(O)(C(F)(F)F)C(F)(F)F)c(Cl)c1Cl		2300	27	50	120	< 4	< 4							
